Data as given in PubChem BioAssay (NCI).
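Interpolation was linear, between the two tested concentrations surrounding the appropriate level; five concentrations were tested over 48 hours in 96-well plates. GI50 = concentration required for 50% inhibition of growth. TGI marks complete inhibition of growth.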

How the values were obtained:
Experiment in all cases: DTP human tumour cell line panel, 48 h
LOX IMVI melanoma = tested on: LOX IMVI melanoma
SF-295 CNS = tested on: SF-295 CNS
BT-549 breast = tested on: BT-549 breast
CAKI-1 renal = tested on: CAKI-1 renal
SW-620 colon = tested on: SW-620 colon
MDA-MB-435 = tested on: MDA-MB-435
M14 melanoma = tested on: M14 melanoma
MOLT-4 leukemia = tested on: MOLT-4 leukemia
MDA-MB-231 breast = tested on: MDA-MB-231 breast
UO-31 renal = tested on: UO-31 renal

SMILES	GI50 (LOX IMVI melanoma)	TGI (LOX IMVI melanoma)	GI50 (SF-295 CNS)	TGI (SF-295 CNS)	GI50 (BT-549 breast)	TGI (BT-549 breast)	GI50 (CAKI-1 renal)	TGI (CAKI-1 renal)	GI50 (SW-620 colon)	TGI (SW-620 colon)	GI50 (MDA-MB-435)	TGI (MDA-MB-435)	GI50 (M14 melanoma)	TGI (M14 melanoma)	GI50 (MOLT-4 leukemia)	TGI (MOLT-4 leukemia)	GI50 (MDA-MB-231 breast)	TGI (MDA-MB-231 breast)	GI50 (UO-31 renal)	TGI (UO-31 renal)
COc1ccc2c(c1)CCC1C2CCC2(C)C1CCC2(O)CNC(=O)CCCCC1CCSS1 (stereo not drawn)	4.37 µM	> 100 µM	19.4 µM	79.6 µM	19.3 µM	98.4 µM	18.1 µM	40.2 µM	12.4 µM	> 100 µM	7.83 µM	> 100 µM	20.8 µM	> 100 µM	1.66 µM	> 100 µM	2.8 µM	8.3 µM	24.9 µM	> 100 µM
O=C(O)CS(=O)(=O)C(c1ccccc1)c1ccccc1		> 100 µM		> 100 µM		> 100 µM		> 100 µM		> 100 µM		> 100 µM		> 100 µM		> 100 µM		> 100 µM		> 100 µM
CCN=C1C=CC(=C(c2ccc(N(C)C)cc2)c2ccc(N(C)C)cc2)c2ccccc21	0.0528 µM	1.01 µM	0.122 µM	0.423 µM	0.0868 µM	0.489 µM	0.2 µM	0.52 µM	0.113 µM	1.11 µM	0.0705 µM	0.408 µM	0.107 µM	0.372 µM	0.202 µM	2.54 µM	0.171 µM	1.3 µM	0.196 µM	0.663 µM
CCN1C(=O)N(CC)C2C1NN=c1s/c(=C3\C(=O)N(C(C)C)c4ccccc43)c(=O)n12 (stereo not drawn)	0.463 µM	> 100 µM	0.246 µM	0.83 µM	1.38 µM	66.4 µM	0.423 µM	> 54.4 µM	0.417 µM	> 100 µM	0.192 µM	0.487 µM	0.376 µM	> 100 µM	0.379 µM	> 100 µM	0.434 µM	15.4 µM	0.636 µM	> 100 µM
C=CCC(N[C@H](CO)C(C)C)c1cn(C(=O)OCC)c2ccccc12 (stereo partly drawn)	19.4 µM	49.5 µM	15.9 µM	38.1 µM	24.7 µM	67.8 µM	13.8 µM	41.1 µM	27.9 µM	> 100 µM	20.3 µM	50.5 µM	21.3 µM	46 µM	15.4 µM	34.7 µM	13.2 µM	31.2 µM	45.2 µM	> 100 µM
CCCN(Cc1ccc(F)cc1)c1ccc(CO)c(Cl)c1	9.49 µM	21.9 µM	1.41 µM	9.65 µM	11.7 µM	25.6 µM	1.47 µM	13.6 µM	1.07 µM	15.6 µM	14.6 µM	29 µM	14.3 µM	32.9 µM	11.2 µM	30.1 µM	13 µM	27.3 µM	2.65 µM	13.9 µM
OCC1OC(n2ccc3c2ncn2ncnc32)C(O)C1O (stereo not drawn)	0.29 µM	1.76 µM	1.13 µM	> 59.8 µM	1.23 µM	25.2 µM	2.67 µM	> 100 µM	0.528 µM	> 100 µM	6.5 µM	> 100 µM	5.65 µM	> 100 µM	0.407 µM	> 43.1 µM	1.52 µM	> 100 µM	2.74 µM	> 100 µM
CCOC(=O)Cc1c[nH]c(=S)[nH]c1=O	> 100 µM	> 100 µM	> 100 µM	> 100 µM	> 100 µM	> 100 µM	> 100 µM	> 100 µM	> 100 µM	> 100 µM	> 100 µM	> 100 µM	> 100 µM	> 100 µM	> 100 µM	> 100 µM	> 100 µM	> 100 µM	> 100 µM	> 100 µM
CCc1c(C)[nH]c(/C=C2\N=C(c3ccc[nH]3)C=C2OC)c1C	< 0.0328 µM		0.747 µM	3.03 µM	0.129 µM	3.87 µM	0.292 µM	3.53 µM		6.56 µM	0.0733 µM	1.42 µM	0.256 µM	2.99 µM	< 0.0394 µM	4.18 µM	0.128 µM	3.16 µM	0.176 µM	0.591 µM
CCN(CC)CCOc1ccc(C(=C(C)c2ccc(Cl)cc2)c2ccc(OCCN(CC)CC)cc2)cc1	0.552 µM	1.03 µM	0.614 µM	1.19 µM	1.33 µM	4.22 µM	0.504 µM	1.02 µM	0.556 µM	1.1 µM	0.558 µM	1.02 µM	0.633 µM	1.14 µM	0.674 µM	1.5 µM	0.581 µM	1.12 µM	0.503 µM	0.969 µM
